Assay results published in ChEMBL document CHEMBL1128700 (J Med Chem, 1995).

Key:
[1] = tested on: Human immunodeficiency virus type 1 reverse transcriptase (Human immunodeficiency virus 1), Q72547 [Y181C]; assay: Percent inhibitory activity against Y181C HIV type I reverse transcriptase at a concentration of 1 uM
[2] = target: Human immunodeficiency virus type 1 reverse transcriptase (Human immunodeficiency virus 1) (UniProt Q72547); assay: Percent inhibitory activity against wild type (WT) HIV type I reverse transcriptase at a concentration of 1 uM
[3] = target: Human immunodeficiency virus type 1 reverse transcriptase (Human immunodeficiency virus 1, UniProt Q72547); assay: Compound was evaluated for inhibition of WT HIV type I reverse transcriptase.
[4] = target: Human immunodeficiency virus type 1 reverse transcriptase (Human immunodeficiency virus 1, UniProt Q72547, Y181C); assay: Compound was evaluated for inhibition of Y181C HIV type I reverse transcriptase.
[5] = tested on: Human immunodeficiency virus type 1 reverse transcriptase (Human immunodeficiency virus 1), Q72547 [Y181C]; conditions: 10 uM
Description: Percent inhibitory activity against Y181C HIV type I reverse transcriptase at a concentration of 10 uM

Compound `O=C1Nc2c(COc3ccc([N+](=O)[O-])cc3)ccnc2N(C2CC2)c2ncccc21` has an inhibition [1] of 12%, an inhibition [2] of 43% and an IC50 [3] of 1130 nM.
With `C=CCOCc1ccnc2c1NC(=O)c1cccnc1N2C1CC1` the inhibition [1] was 29%, the inhibition [2] was 35% and the IC50 [3] was 1410 nM.
With `O=C1Nc2c(Cn3ccnc3)ccnc2N(C2CC2)c2ncccc21` the inhibition [1] was 20% and the inhibition [2] was 13%.
`CCN1c2ncccc2C(=O)Nc2c(C=O)cc(-c3cccc(OC)c3)nc21` gave an inhibition [1] of 63%, an inhibition [2] of 71% and an IC50 [3] of 330 nM. It also gave an IC50 [4] of 420 nM.
`CCN1c2ncccc2C(=O)Nc2c(COCc3ccccc3)cc(-c3cccc(OC)c3)nc21` was tested, and the inhibition [1] was 12% and the inhibition [2] was 0%.
Work on `CCN1c2ncccc2C(=O)Nc2c(Cc3ccccc3)cc(-c3cccc(OC)c3)nc21` yielded an inhibition [1] of 15% and an inhibition [2] of 20%.
Compound `O=C1Nc2c(Cc3ccccc3)ccnc2N(C2CC2)c2ncccc21` has an inhibition [1] of 8%, an inhibition [2] of 73% and an IC50 [3] of 140 nM.
`O=C1Nc2c(Cn3cccn3)ccnc2N(C2CC2)c2ncccc21` gave an inhibition [1] of 5%, an inhibition [2] of 36% and an IC50 [3] of 2200 nM.
With `CCN1c2ncccc2C(=O)Nc2c(C3OCCCO3)cc(-c3cccc(OC)c3)nc21` the inhibition [1] was 7% and the inhibition [2] was 40%.
In the case of `O=C1Nc2c(CO)ccnc2N(C2CC2)c2ncccc21`, the inhibition [1] is reported as 4% and the inhibition [2] is reported as 34%.
Work on `CCN1c2ncccc2C(=O)Nc2c(C=O)cc(OC)nc21` yielded an inhibition [1] of 38%, an inhibition [2] of 78% and an IC50 [3] of 240 nM.
Compound `O=C1Nc2c(COCCc3ccccc3)ccnc2N(C2CC2)c2ncccc21` has an inhibition [1] of 28%, an inhibition [2] of 55% and an IC50 [3] of 420 nM.
With `O=C1Nc2c(CC3=CCNC3)ccnc2N(C2CC2)c2ncccc21` the inhibition [1] was 26%, the inhibition [2] was 54% and the IC50 [3] was 640 nM.
For `Nc1ccc(OCc2ccnc3c2NC(=O)c2cccnc2N3C2CC2)cc1`, the inhibition [1] was 49%, the inhibition [2] was 91% and the IC50 [3] was 100 nM. It also gave an IC50 [4] of 1010 nM.
In the case of `O=C1Nc2c(/C=C/c3ccccc3)ccnc2N(C2CC2)c2ncccc21`, the inhibition [1] is reported as 25% and the inhibition [2] is reported as 23%.
Work on `O=C1Nc2c(CCc3ccccc3)ccnc2N(C2CC2)c2ncccc21` yielded an inhibition [1] of 38% and an inhibition [2] of 36%.
`CCN1c2ncccc2C(=O)Nc2c(Cc3ccccc3)cc(O)nc21` showed an inhibition [1] of 42% and an inhibition [2] of 67%.
In the case of `CCOCc1ccnc2c1NC(=O)c1cccnc1N2C1CC1`, the inhibition [1] is reported as 29%, the inhibition [2] is reported as 41% and the IC50 [3] is reported as 1300 nM.
`Cc1ccccc1OCc1ccnc2c1NC(=O)c1cccnc1N2C1CC1` gave an inhibition [1] of 28%, an inhibition [2] of 65% and an IC50 [3] of 290 nM.
For `CCN1c2ncccc2C(=O)Nc2c(CO)cc(O)nc21`, the inhibition [1] was 25%, the inhibition [2] was 51% and the IC50 [3] was 420 nM.
For `O=C1Nc2c(CN3CCCC3)ccnc2N(C2CC2)c2ncccc21`, the inhibition [1] was 16%, the inhibition [2] was 51% and the IC50 [3] was 700 nM.
Work on `COc1ccc(OCc2ccnc3c2NC(=O)c2cccnc2N3C2CC2)cc1` yielded an inhibition [1] of 41%, an inhibition [2] of 47% and an IC50 [3] of 1040 nM.
For `O=C1Nc2c(CN3CCCCC3)ccnc2N(C2CC2)c2ncccc21`, the inhibition [1] was 20% and the inhibition [2] was 29%.
For `CCOC(=O)CCc1ccnc2c1NC(=O)c1cccnc1N2C1CC1`, the inhibition [1] was 11% and the inhibition [2] was 13%.
`CCN1c2ncccc2C(=O)Nc2c(COc3ccccc3)cc(-c3cccc(OC)c3)nc21` was tested, and the inhibition [1] was 37%, the inhibition [2] was 69% and the IC50 [3] was 490 nM.
`CCN1c2ncccc2C(=O)Nc2c(C3OCCCO3)cc(O)nc21` gave an inhibition [1] of 0% and an inhibition [2] of 0%.
For `O=C1Nc2c(CN3CCOCC3)ccnc2N(C2CC2)c2ncccc21`, the inhibition [1] was 21%, the inhibition [2] was 50% and the IC50 [3] was 1030 nM.
`N#Cc1ccc(OCc2ccnc3c2NC(=O)c2cccnc2N3C2CC2)cc1` was tested, and the inhibition [1] was 11%, the inhibition [2] was 57% and the IC50 [3] was 410 nM.
Work on `CCNc1ccc(OCc2ccnc3c2NC(=O)c2cccnc2N3C2CC2)cc1` yielded an inhibition [1] of 58%, an inhibition [2] of 88% and an IC50 [3] of 80 nM. The IC50 [4] was 430 nM.
`O=C1Nc2c(COc3ccccc3O)ccnc2N(C2CC2)c2ncccc21` was tested, and the inhibition [1] was 42%, the inhibition [2] was 59% and the IC50 [3] was 460 nM.
`O=C(O)CCc1ccnc2c1NC(=O)c1cccnc1N2C1CC1` was tested, and the inhibition [1] was 8% and the inhibition [2] was 2%.
`CCN1c2ncccc2C(=O)Nc2c(Cc3ccccc3)cc(OC)nc21` gave an inhibition [1] of 0% and an inhibition [2] of 0%.
`O=C(O)/C=C/c1ccnc2c1NC(=O)c1cccnc1N2C1CC1` was tested, and the inhibition [1] was 0% and the inhibition [2] was 0%.
`CCN1c2ncccc2C(=O)Nc2c(COCc3ccccc3)cc(OC)nc21` gave an inhibition [1] of 26%, an inhibition [2] of 42% and an IC50 [3] of 920 nM.
In the case of `Cc1cccc(OCc2ccnc3c2NC(=O)c2cccnc2N3C2CC2)c1`, the inhibition [1] is reported as 9%, the inhibition [2] is reported as 38% and the IC50 [3] is reported as 2430 nM.
Compound `Cc1ccnc2c1NC(=O)c1cccnc1N2C1CC1` has an inhibition [2] of 85% and an inhibition [5] of 59%.
`CCOC(=O)/C=C/c1ccnc2c1NC(=O)c1cccnc1N2C1CC1` gave an inhibition [1] of 22% and an inhibition [2] of 27%.
`C=Cc1ccnc2c1NC(=O)c1cccnc1N2C1CC1` was tested, and the inhibition [1] was 16%, the inhibition [2] was 83% and the IC50 [3] was 110 nM.
Work on `O=C1Nc2c(CSc3ccccc3)ccnc2N(C2CC2)c2ncccc21` yielded an inhibition [1] of 14%, an inhibition [2] of 44% and an IC50 [3] of 1030 nM.
Compound `Cc1ccc(Cc2ccnc3c2NC(=O)c2cccnc2N3C2CC2)c(O)c1` has an inhibition [1] of 29%, an inhibition [2] of 76% and an IC50 [3] of 200 nM.
For `CCN1c2ncccc2C(=O)Nc2c(COc3ccccc3)cc(O)nc21`, the inhibition [1] was 20% and the inhibition [2] was 33%.
Compound `O=C1Nc2c(CNc3ccccc3)ccnc2N(C2CC2)c2ncccc21` has an inhibition [1] of 41%, an inhibition [2] of 87% and an IC50 [3] of 60 nM. The IC50 [4] was 1370 nM.
With `CCN1c2ncccc2C(=O)Nc2c(COCc3ccccc3)cc(=O)[nH]c21` the IC50 [3] was 110 nM and the IC50 [4] was 1070 nM.
Compound `COc1ccc(O)c(Cc2ccnc3c2NC(=O)c2cccnc2N3C2CC2)c1` has an inhibition [1] of 47%, an inhibition [2] of 42% and an IC50 [3] of 850 nM.
`O=C1Nc2c(COc3ccccc3Cl)ccnc2N(C2CC2)c2ncccc21` gave an inhibition [1] of 20%, an inhibition [2] of 30% and an IC50 [3] of 3050 nM.
`CCN1c2ncccc2C(=O)Nc2c(COCc3ccccc3)cc(O)nc21` showed an inhibition [1] of 38% and an inhibition [2] of 83%.
With `O=C1Nc2c(COCc3ccccc3)ccnc2N(C2CC2)c2ncccc21` the inhibition [1] was 37%, the inhibition [2] was 67% and the IC50 [3] was 270 nM.
In the case of `O=C1Nc2c(Cc3ccccc3O)ccnc2N(C2CC2)c2ncccc21`, the inhibition [1] is reported as 50%, the inhibition [2] is reported as 75% and the IC50 [3] is reported as 190 nM. The IC50 [4] was 1120 nM.
For `O=C1Nc2c(COc3ccccc3)ccnc2N(C2CC2)c2ncccc21`, the inhibition [1] was 26%, the inhibition [2] was 78% and the IC50 [3] was 120 nM. The IC50 [4] was 2580 nM.
`CCN1c2ncccc2C(=O)Nc2c(CO)cc(OC)nc21` was tested, and the inhibition [1] was 24%, the inhibition [2] was 89% and the IC50 [3] was 50 nM.
Compound `CCN1c2ncccc2C(=O)Nc2c(CO)cc(-c3cccc(OC)c3)nc21` has an inhibition [1] of 0% and an inhibition [2] of 16%.
`CCN1c2ncccc2C(=O)Nc2c(Cc3ccccc3)cc(=O)[nH]c21` was tested, and the IC50 [3] was 340 nM and the IC50 [4] was 1300 nM.
`Cc1ccc(OCc2ccnc3c2NC(=O)c2cccnc2N3C2CC2)cc1` was tested, and the inhibition [1] was 33%, the inhibition [2] was 55% and the IC50 [3] was 580 nM.
Work on `O=C1Nc2c(CSCc3ccccc3)ccnc2N(C2CC2)c2ncccc21` yielded an inhibition [1] of 28% and an inhibition [2] of 33%.
Compound `CCN1c2ncccc2C(=O)Nc2c(COc3ccccc3)cc(OC)nc21` has an inhibition [1] of 17%, an inhibition [2] of 44% and an IC50 [3] of 4000 nM.
Compound `CCN1c2ncccc2C(=O)Nc2c(C=O)cc(O)nc21` has an inhibition [1] of 6% and an inhibition [2] of 36%.
Compound `CCN1c2ncccc2C(=O)Nc2c(C3OCCCO3)cc(OC)nc21` has an inhibition [1] of 22%, an inhibition [2] of 52% and an IC50 [3] of 800 nM.
In the case of `O=C1Nc2c(COCCCc3ccccc3)ccnc2N(C2CC2)c2ncccc21`, the inhibition [1] is reported as 20% and the inhibition [2] is reported as 29%.
